Measured values as given in patent publication US20230293500A1, “AK3287 PREPARATION, AND PREPARATION METHOD THEREFOR AND APPLICATION THEREOF” (SUZHOU ARK BIOPHARMACEUTICAL CO., LTD., priority 2020, published 2023).

Assay: PK analysis of AK3287 in plasma and skin by LC/MS after application on wound
Assay type: in vivo, Duroc pig
Description: According to Table 4, 1 ml of the AK3287 emulsion or vehicle was administered to each of the wounds and smeared evenly on the wounds. The above administration treatment was carried out once daily. The time points for administration were set to start on Day 3 and end on Day 21.
3. Sample and analysis of PK test:
On Day 4, Day 9, Day 15, and Day 21 (i.e., on Day 1, Day 6, Day 12, and Day 18 after the first administration), a piece of circular skin was obtained by surgical incision with a skin biopsy punch (10 mm), after the animal was anesthetized and before the drug was smeared. Blood was sampled from the jugular vein and prepared as plasma. A total of 48 skin samples and 48 plasma samples were collected and subjected to PK analysis by LC/MS method.

Q: Which “amount of AK3287 entering the blood (plasma PK)” value (plasma, application of emulsion on wound, FIG. 2) does the source give for Cn1cc(-c2cn(-c3ccc(OC(F)(F)F)cc3)c(=O)c3ncn(C)c23)cn1 [AK3287] here?
A: a small amount of AK3287 could enter the blood

Q: And the “exposure in the skin, by dose group” value (skin, 0.5%, 2% and 8% emulsion groups, FIG. 3)?
A: higher in the high-dose group

Q: What about the “distribution of AK3287 in skin tissues (skin PK)” value (skin, application of emulsion on wound, FIG. 3) of the same compound?
A: a majority of AK3287 remained in the skin tissues
